# Experimental data taken from patent US9617330B2, “Chemorepulsion of cells” (Celtaxsys, Inc., priority 2006, dated 2017).
# B1: HSP47 Human: heat shock protein; accession AAP35758 (protein, UniProt P50454 19-418, looked up)
# Serpin H1: AEVKKPAAAAAPGTAEKLSPKAATLAERSAGLAFSLYQAMAKDQAVENILVSPVVVASSLGLVSLGGKATTASQAKAVLSAEQLRDEEVHAGLGELLRSLSNSTARNVTWKLGSRLYGPSSVSFADDFVRSSKQHYNCEHSKINFRDKRSALQSINEWAAQTTDGKLPEVTKDVERTDGALLVNAMFFKPHWDEKFHHKMVDNRGFMVTRSYTVGVMMMHRTGLYNYYDDEKEKLQIVEMPLAHKLSSLIILMPHHVEPLERLEKLLTKEQLKIWMGKMQKKAVAISLPKGVVEVTHDLQKHLAGLGLTEAIDKNKADLSRMSGKKDLYLASVFHATAFELDTDGNPFDQDIYGREELRSPKLFYADHPFIFLVRDTQSGSLLFIGRLVRPKGDKMRDEL
# B2: CCL27: chemokine (protein, UniProt Q9Y4X3 25-112, looked up)
# C-C motif chemokine 27: FLLPPSTACCTQLYRKPLSDKLLRKVIQVELQEADGDCHLQAFVLHLAQRSICIHPQNPSLSQWFEHQERKLHGTLPKLNFGMLRKMG
# B3: Galectin-2: carbohydrate binding protein (galectin), full-length, purchased; accession P05162 (protein, UniProt P05162 1-132, looked up)
# chain: MTGELEVKNMDMKPGSTLKITGSIADGTDGFVINLGQGTDKLNLHFNPRFSESTIVCNSLDGSNWGQEQREDHLCFSPGSEVKFTVTFESDKFKVKLPDGHELTFPNRLGHSHLSYLSVRGGFNMSSFKLKE
# modifications: full-length
# B4: Semaphorin 3A: semaphorin (protein, UniProt Q14563 21-771, looked up)
# Semaphorin-3A: NYQNGKNNVPRLKLSYKEMLESNNVITFNGLANSSSYHTFLLDEERSRLYVGAKDHIFSFDLVNIKDFQKIVWPVSYTRRDECKWAGKDILKECANFIKVLKAYNQTHLYACGTGAFHPICTYIEIGHHPEDNIFKLENSHFENGRGKSPYDPKLLTASLLIDGELYSGTAADFMGRDFAIFRTLGHHHPIRTEQHDSRWLNDPKFISAHLISESDNPEDDKVYFFFRENAIDGEHSGKATHARIGQICKNDFGGHRSLVNKWTTFLKARLICSVPGPNGIDTHFDELQDVFLMNFKDPKNPVVYGVFTTSSNIFKGSAVCMYSMSDVRRVFLGPYAHRDGPNYQWVPYQGRVPYPRPGTCPSKTFGGFDSTKDLPDDVITFARSHPAMYNPVFPMNNRPIVIKTDVNYQFTQIVVDRVDAEDGQYDVMFIGTDVGTVLKVVSIPKETWYDLEEVLLEEMTVFREPTAISAMELSTKQQQLYIGSTAGVAQLPLHRCDIYGKACAECCLARDPYCAWDGSACSRYFPTAKRRTRRQDIRNGDPLTHCSDLHHDNHHGHSPEERIIYGVENSSTFLECSPKSQRALVYWQFQRRNEERKEEIRVDDHIIRTDQGLLLRSLQQKDSGNYLCHAVEHGFIQTLLKVTLEVIDTEHLEELLHKDDDGDGSKTKEMSNSMTPSQKVWYRDFMQLINHPNLNTMDEFCEQVWKRDRKQRRQRPGHTPGNSNKWKHLQENKKGRNRRTHEFERAPRSV
# B5: HSP25: heat shock protein; accession AAA37862 (protein, UniProt P14602 1-209, looked up)
# Heat shock protein beta-1: MTERRVPFSLLRSPSWEPFRDWYPAHSRLFDQAFGVPRLPDEWSQWFSAAGWPGYVRPLPAATAEGPAAVTLAAPAFSRALNRQLSSGVSEIRQTADRWRVSLDVNHFAPEELTVKTKEGVVEITGKHEERQDEHGYISRCFTRKYTLPPGVDPTLVSSSLSPEGTLTVEAPLPKAVTQSAEITIPVTFEARAQIGGPEAGKSEQSGAK
# B6: Semaphorin 3F: semaphorin (protein, UniProt Q13275 19-785, looked up)
# Semaphorin-3F: SFPTQDHLPATPRVRLSFKELKATGTAHFFNFLLNTTDYRILLKDEDHDRMYVGSKDYVLSLDLHDINREPLIIHWAASPQRIEECVLSGKDVNGECGNFVRLIQPWNRTHLYVCGTGAYNPMCTYVNRGRRAQATPWTQTQAVRGRGSRATDGALRPMPTAPRQDYIFYLEPERLESGKGKCPYDPKLDTASALINEELYAGVYIDFMGTDAAIFRTLGKQTAMRTDQYNSRWLNDPSFIHAELIPDSAERNDDKLYFFFRERSAEAPQSPAVYARIGRICLNDDGGHCCLVNKWSTFLKARLVCSVPGEDGIETHFDELQDVFVQQTQDVRNPVIYAVFTSSGSVFRGSAVCVYSMADIRMVFNGPFAHKEGPNYQWMPFSGKMPYPRPGTCPGGTFTPSMKSTKDYPDEVINFMRSHPLMYQAVYPLQRRPLVVRTGAPYRLTTIAVDQVDAADGRYEVLFLGTDRGTVQKVIVLPKDDQELEELMLEEVEVFKDPAPVKTMTISSKRQQLYVASAVGVTHLSLHRCQAYGAACADCCLARDPYCAWDGQACSRYTASSKRRSRRQDVRHGNPIRQCRGFNSNANKNAVESVQYGVAGSAAFLECQPRSPQATVKWLFQRDPGDRRREIRAEDRFLRTEQGLLLRALQLSDRGLYSCTATENNFKHVVTRVQLHVLGRDAVHAALFPPLSMSAPPPPGAGPPTPPYQELAQLLAQPEVGLIHQYCQGYWRHVPPSPREAPGAPRSPEPQDQKKPRNRRHHPPDT
# Assays:
# [1] = test system: Human primary CD4+ lymphocytes; assay: Trans-well migration assay (Example 3 method), unimodal fugetaxin test; format: cell-based; parameters: key: A “+” in the Table indicates a positive hit as a unimodal fugetaxin, as that term is defined herein, for that particular cell type; details: methods of Example 3
# [2] = test system: Human primary neutrophils; assay: as above; format: cell-based; parameters: key to Unimodal fugetaxin hit, Neutrophils: A “+” in the Table indicates a positive hit as a unimodal fugetaxin, as that term is defined herein, for that particular cell type; details: for Unimodal fugetaxin hit, Neutrophils: human neutrophils, methods of Example 3
# [3] = test system: Eo-HL60 (HL-60 clone 15 differentiated to eosinophil-like phenotype); assay: Trans-well migration assay (Example 1), net migratory response; format: cell-based, human; details: net observed response
# Monocyte = assay: as above; details: Monocyte; net observed response
# Experimental: Prior to beginning the assay 0.5% Fetal Calf Serum (FCS) in Iscove's Modified Dulbecco's Medium (IMDM) is prepared and stored on ice (Assay Medium). Migratory cells at a concentration of 2×10^7 cells/ml are suspended in Assay Medium. T-cells isolated from donor blood or buffy coats are allowed to rest overnight in Assay Medium at 37° C. in 5% CO2. Neutrophils, monocytes and B cells are utilized as soon as they are purified from donor blood or other source of human origin. Four serial (10×) dilutions of the ligand are then prepared in Assay Medium (normally 10 μg/ml to 0.01 μg/ml).
# Plates are removed from the packaging, leaving the membrane behind and intact. The membrane is set aside. Into each well is pipetted 31 μl of solution. For media controls and fugetaxis (chemorepellent) samples, Assay Medium is used. For chemoattraction samples, the appropriate dilution of agent in assay medium is used.
# Using a sterile needle, all small bubbles present in each well are popped and the membrane is carefully placed onto the plate, starting at one side and slowly lowering the other edge onto the plate.
# Then 29 μl is pipetted into each circle imprinted on the polycarbonate or polyester membrane. For media controls and chemoattraction samples, Assay Medium is used. For fugetaxis (chemorepellent) samples, the appropriate dilution of ligand in assay medium is used.
# To each 29 uL aliquot above is added 2 μl of cells (40,000 cells). It is important to ensure that before beginning the cells are well suspended and that they are mixed. This mixing can be accomplished by agitating the tube between each addition.
# The plate is then covered with the supplied lid and incubated 1-3 hours in a humidified incubator at 37° C. in 5% CO2. Following the incubation period, the liquid from the top of the plate is removed with a tissue or similar blotting material (e.g. a Kimwipe). The membrane is carefully removed from the top of the plate and discarded. […] Using a multichannel pipettor, each well of the microplate is rinsed with 25 μl Phosphate Buffered Saline (Mediatech #21-040-CV) and transferred to the same wells in the white microplate. Using a multichannel pipettor, 50 μl CellTiter-Glo Luminescent Cell Viability Assay (Promega #G7572) is added to each well and mixed.
# The plate is read using the Perkin Elmer Victor^3V plate reader using the Large Aperture Luminescence setting at 8 mm height above the plate with a dwell time of 1 s to quantify the number of migrated cells.
# The results reported reflect the net observed migratory response of the cells to the ligand and are not based on the definition of unimodal fugetaxins.
# Monocytes = assay: High throughput transmigration assay (Example 9), chemorepulsion; format: cell-based, human; details: mean of three donors at concentration of highest activity, range 0.00125-1.25 μM
# Source text: (§1) An agent's repellent index is the ratio of chemorepulsion (CR) to spontaneous migration (SM) induced by the agent, i.e., [(CR)/(SM)]. […] For example, in calculating a RI for an agent, migratory responses including chemorepulsion (CR) and spontaneous migration (SM) may be measured over several decades or log scales of concentration. If, over any two consecutive measurements at concentrations which differ by at least 10 fold, the ratio of CR to SM at each of the two contiguous measurements is equal to or greater than 1.2, then the agent is considered a validated chemorepellent.
# (§2) For primary human T cells, up to 80 ml of blood is drawn from a human donor in sodium heparin Vacutainer tubes (Becton-Dickinson). The blood (between 10 and 15 ml per tube) is then layered onto 30 ml of Lymphocyte Separation Medium (LSM) (Cellgro, Herndon, Va.) in a 50 ml conical centrifuge tube and centrifuged for 20 minutes at 2440×g in a swinging bucket rotor. After removing the majority of the plasma from the top of each tube, the peripheral blood mononucleocyte (PBMC) layer is removed and transferred to fresh 50 ml conical centrifuge tubes. The tubes are then filled to 50 ml with IMDM and centrifuged for 10 minutes at 500×g. All but approximately 5 ml of the supernatant is then removed and the pellet resuspended with 25 ml IMDM and the centrifugation repeated. After removal of the supernatant, the cells are resuspended and combined to one 50 ml tube (per subject) and brought to a total volume of 50 ml. The cells are then counted using a hemacytometer (Reichert). After centrifugation under the same conditions, the supernatant is removed and the cells processed using the appropriate Miltenyi Biotec (Auburn, Calif.) negative selection kit to enrich for the desired cell type according to manufacturers instructions. The resulting purified cells are then diluted to 50 ml with IMDM. After centrifugation at 500×g for 10 minutes, the supernatant is removed and the cells resuspended in 15 ml IMDM supplemented with 0.5% heat inactivated fetal calf serum (FCS) (ATCC, Manassas, Va.). After another centrifugation for 10 minutes at 500×g, the supernatant is again removed and the cells resuspended in 7 ml 0.5% FCS in IMDM (assay medium) and transferred to a 15 ml conical centrifuge tube. The cells are then quantitated using a hemacytometer. When enriching for monocytes, the concentration of cells is adjusted to 2×10^7 per ml by centrifugation and removal of the appropriate volume of assay medium. For all other cell types, the tube cap is replaced with one from a 25 cm^2 tissue culture flask (Corning) and the cells stored overnight in a humidified 37° C. incubator with 5% CO2. The concentration of the cells is adjusted as for monocytes just prior to transmigration assay of Example 9.
# It is noted that this procedure may be used to isolate and/or purify monocytes. In the monocyte purification method, a further step is included for platelet removal via the use of CD61 microbeads also purchased from Miltenyi Biotec (Auburn, Calif.).
# (§3) Migration away from a chemical or biological agent (chemorepulsion (CR)) was measured using ChemoTx plates (Neuroprobe). These plates contain a planar polycarbonate or polyester membrane that has been etched and perforated so that cells can move along the etched tracks and fall through perforation holes, enabling the cells to be collected and the number of migrated cells quantified (FIGS. 5-6). Several dilutions (normally 4 in 10-fold increments) are prepared of the agent of interest. For neutrophils, plates with 3 μm pore membranes are used, while for all other primary cell types, 5 μm pore membranes are used. Membranes may, or may not, be coated with polyvinylpyrrolidine (PVP) as a wetting agent.
# For spontaneous migration controls and chemorepulsion (CR) assays, 31 μl of assay medium is pipetted into the lower well of the transmigration apparatus (FIGS. 5-6). […]
# B cells = assay: as above; format: cell-based, human; parameters: key: ratio of chemorepulsion (CR) to spontaneous migration (SM), CR/SM
# Source text: as §1, §2, §3
# (§4) For spontaneous migration controls and chemorepulsion (CR) assays, 31 μl of assay medium is pipetted into the lower well of the transmigration apparatus (FIGS. 5-6). For spontaneous migration controls and chemoattraction (CA) assays, 29 μl of assay medium is pipetted into upper chamber of the transmigration apparatus (FIG. 5). For CR, the upper well assay medium contains the agent or candidate chemorepellent. […]
# Neutrophils = assay: as above; format: cell-based, human; details: Neutrophils, mean of three donors at concentration of highest activity
# CD8+ = assay: as above; format: cell-based, human; details: mean of three donors at concentration of highest activity
# Source text: as §1, §2, §3, §4
# [4] = mean of three donors at concentration of highest activity, range 0.00125-1.25 μM
molecule,measurement,setting,value
"CC(C)Cn1cnc2c(N)nc3ccccc3c21 [Imiquimod, reference compound]","Unimodal fugetaxin hit, CD4+",[1],+
same,"Unimodal fugetaxin hit, Neutrophils",[2],+
same,Migratory Response,[3],chemorepulsion
same,Migratory Response,Monocyte,chemorepulsion
CCL7: chemokine,Repellent Index,Monocytes,2.3
CCL11: chemokine,Repellent Index,B cells; [4],2.1
CCL13: chemokine,Repellent Index,Monocytes,2.6
CXCL1: chemokine,Repellent Index,Neutrophils; range 0.00125-1.25 μM,2.6
same,Repellent Index,B cells; [4],1.3
HSP27: heat shock protein; accession G01523/AAA62175,"Unimodal fugetaxin hit, Neutrophils",[2],+
same,Migratory Response,[3],chemorepulsion
same,Repellent Index,Neutrophils; range 0.00125-1.25 μM,4.4
same,Migratory Response,Monocyte,chemorepulsion
HSP60: heat shock protein,"Unimodal fugetaxin hit, CD4+",[1],+
same,"Unimodal fugetaxin hit, Neutrophils",[2],+
same,Migratory Response,[3],chemorepulsion
HSP90: heat shock protein; accession NP_005339.2 and others,"Unimodal fugetaxin hit, CD4+",[1],+
same,"Unimodal fugetaxin hit, Neutrophils",[2],+
same,Migratory Response,[3],chemorepulsion
same,Repellent Index,Neutrophils; range 0.00125-1.25 μM,1.7
IL8: interleukin-8,chemotactic (chemoattractant) versus fugetactic (chemorepellent) response of neutrophils,"[2]; neutrophils, 1 hour, FIGS. 3 and 4, at 10 uM where stated",over twice as chemotactic (chemoattractant) as fugetactic (chemorepellent)
B1,Migratory Response,[3],chemorepulsion
same,Repellent Index,Neutrophils; range 0.00125-1.25 μM,1.4
same,Repellent Index,CD8+; range 0.00125-1.25 μM,1.4
same,Repellent Index,B cells; [4],1.5
B2,Repellent Index,B cells; [4],1.4
B3,Migratory Response,[3],chemorepulsion
same,Repellent Index,CD8+; range 0.00125-1.25 μM,1.5
B4,Repellent Index,CD8+; range 0.01-10 μM,1.3
same,Repellent Index,"B cells; 0.00125 μM, one donor, triplicate, ± SD",1.87 ± 0.40
same,Repellent Index,"B cells; 0.0125 μM, one donor, triplicate, ± SD",2.07 ± 0.52
same,Repellent Index,"B cells; 0.125 μM, one donor, triplicate, ± SD",2.39 ± 0.71
same,Repellent Index,"B cells; 1.25 μM, one donor, triplicate, ± SD",2.16 ± 0.28
same,Repellent Index,"B cells; mean of three donors at concentration of highest activity, range 0.01-10 μM",1.6
B5,"Unimodal fugetaxin hit, Neutrophils",[2],+
same,Repellent Index,Neutrophils; range 0.00125-1.25 μM,11.9
same,Repellent Index,CD8+; range 0.00125-1.25 μM,1.3
B6,Repellent Index,Neutrophils; range 0.01-10 μM,1.8
same,Repellent Index,CD8+; range 0.01-10 μM,1.3
